Where two headings read alike, the source gives them in different places.

Data set [1] has as its system serum cholesterol, LDL, HDL, triglycerides. Put plainly: Serum lipids and lipoprotein cholesterol in cholesterol-fed female New Zealand White rabbits. The format is in vivo. As to conditions: Oryctolagus cuniculus, po, 168 h. How it is done:
Five independent experiments were performed in the following manner. […] Female New Zealand White rabbits (Hazelton, ~2.0-2.3 kg) were fed 0.2% cholesterol enriched rabbit chow (Purina #5322) with or without 0.4% MDL compound (except, MDL 108,804 at 0.26% and MDL 103,491 repeated at 0.6%). The MDL compounds were solubilized in 100% ethanol. MDL 108,208 was not soluble in 100% ethanol, but it was soluble in diethyl ether:ethanol (3:2 by volume). The chow was sprayed with the MDL mixtures and allowed to dry overnight in a chemical fume hood. Control chow was sprayed with ethanol. Rabbits were fed 100 grams food per day for 7 days (0.6% MDL 103,491 were fed for 14 days); water was available ad libitum. On day 7, rabbits (fasted overnight) were bled (~2 mL) from marginal ear vein; 0.6% MDL 103,491 treated rabbits were tested on day 14. They were euthanized by carbon dioxide overdose. The total body and liver weights were recorded in grams. Food consumption was recorded as grams.cndot.day^-1 .cndot.rabbit^-1. Aliquots of fresh serum were used for clinical chemistries, lipoprotein cholesterol determination, thiobarbituric acid reactive substances (TBARS) and compound and metabolite concentrations in serum. Livers (~5 gram aliquots) were frozen at -20° C. for compound and metabolite concentration determination at a later time.
Blood was allowed to clot at room temperature for 30 minutes. Serum was obtained after centrifugation for 10 min at 5° C. at 3000 rpm in a Beckman GPKR centrifuge with a GH rotor. Fresh serum was analyzed by a COBAS MIRA autoanalyzer (Roche Diagnostics) using Roche diagnostic reagents for total cholesterol (CHOL, kit #44334) and triglyceride (TG, kit #44120). Cholesterol and triglycerides were calculated as mg/dL.
Lipoprotein fractions (very low density lipoprotein, VLDL, low density lipoprotein, LDL and high density lipoprotein, HDL) were separated on a Sepharose 6HR column (1×30 cm, Pharmacia) attached to a Waters Powerline HPLC system. Fifty μL of serum were injected onto the column and eluted with phosphate buffered saline, pH 7.4, at a flow rate of 0.5 mL/min. Cholesterol reagent (Roche Diagnostics, kit #44334, diluted with 20 mL water and then with 20 mL of 0.9% saline) was added at 0.2 mL/min to the post column eluant and incubated in a knitted PFTE Kratos reaction coil (Applied Biosystems) at 37° C. for 5 min. Absorbance was measured at 500 nm. The lipoprotein subfractions were quantitated as follows: [formula]

Data set [2] relates to oxidation of serum lipids. In words: TBARS assay, rat serum. The data set is classed as in vivo, male Sprague-Dawley rats. Conditions: po, 96 h, read-out: TBARS, percent of control. The source says:
(§1) A typical experiment consisted of 4-6 groups of rats (N=5 per group) with 1 group being a control which received no MDL compound and the other groups being treated with 0.3% MDL compound. Some of the compounds were either repeated at 0.3% or evaluated again at the lower dose of 0.1%. Male Sprague-Dawley rats, 50-100 g, (Harlan Laboratories, Indianapolis, Ind.) were housed in groups of 5, fed ad libitum water and Purina Rodent chow (#5002) with or without MDL compound as a dietary admixture for 4 days. Dietary admixtures (0.3%) were made by mixing 1.2 grams of an MDL compound with 400 grams of Purina rodent chow (#5002). The MDL compound was mixed with approximately 50 grams of food using a mortar and pestle. This was added to the remainder of the food and mixed for 3 hours on a rotary mixer. In the morning of day 5, non-fasted rats were anesthetized with carbon dioxide, and blood was collected by cardiac puncture. Rats were sacrificed by cervical dislocation. Body weights and liver weights were recorded in grams. Food consumption was recorded as grams.cndot.day^-1.cndot.rat^-1. Deaths were recorded as mortality. Aliquots of fresh serum were used for clinical chemistries, thiobarbituric acid reactive substances (TBARS) and conjugated diene measurements. Aliquots of serum (~0.5mL) and whole livers were frozen at -20° C. for compound and metabolite concentration determination at a later time.
In this assay the oxidation of serum lipids is initiated with CuSO4, resulting in the formation of aldehydes, such as malondialdehyde (MDA). Upon incubation with thiobarbituric acid, the absorbance of the aldehydes can be detected at 530-540 nm. As stated in the previous example, TBARS values which are lower than control serum values indicate the relative ability of a test compound to inhibit the oxidation of lipids in a sample. TBARS were measured as follows: 100 μL of serum were mixed with 400 μL of a 5 mmol CuSO4 solution and incubated at 37° C. for 3 hr. The reactions were stopped by addition of 1.0 mL of 20% trichloroacetic acid. Then 1.0 mL of 0.67% thiobarbituric acid in 0.05N sodium hydroxide was added, mixed, and the samples incubated for 30 min at 90° C. Samples were centrifuged briefly to pellet undissolved material, and the supernatants were transferred to a 96-well microtiter plate. Absorbances were measured at 540 nm using a Biotek model EL311 microplate reader. The nmoles of MDA produced were calculated from a standard curve of 0 to 10 nmoles of MDA prepared from malonaldehyde bis(dimethylacetal). Serum samples from treated rats were compared to serum samples from control rats that received no MDL compound.

A short description of data set [3]: HPLC quantitation of compound and metabolite concentration in rat serum and liver. The format is in vivo, male Sprague-Dawley rats. As to conditions: 4 days; for concentration at 96 h: po.
Excerpt: as §1
Serum and liver concentrations of parent compound and the metabolites, bisphenol and diphenoquinone, were determined by reverse phase HPLC using a Waters 990 Powerline system. Livers (1 gram samples) were homogenized with 5.0 mL PBS, pH 7.4, using a Polytron tissue homogenizer at setting 5 for 20-30 seconds. Serum or liver homogenates were extracted as follows: 100μL of either serum or homogenate were added to 2.0 mL diethyl ether:ethanol (3:1) while vortexing the tube. The sample tubes were capped and centrifuged for 10 min at 5° C. at 3500 rpm in a Beckman GPKR centrifuge with a GH 3.7 rotor. The supernatants were transferred to clean tubes and dried under N2. Samples were reconstituted with 200 μL of acetonitrile:hexane:0.1M ammonium acetate (90:6.5:3.5, by vol.). Then, 100 μL were injected onto a Waters Deltapak C18-300 Å column, and eluted with an 83% acetonitrile:17% water mobile phase at a flow rate of 1.5 mL/min. Absorbances at the wavelengths of 240, 254, and 420 nm were recorded. Compound concentrations were calculated from known quantities of authentic parent compounds after correction for recovery; the range of recovery from spiked samples was 40 to 100%. The lowest detectable limit for this class of compounds was ~0.5 μg/mL. […]. Concentrations were calculated as μg/mL of serum and μg/g of liver.

[4] abbreviates: rabbit serum, diet 0.4%, 7 days, read-out: HDL cholesterol, percent of control.
Where [5] appears, read: rabbit serum, diet 0.4%, 7 days, read-out: LDL cholesterol, percent of control.
Where [6] appears, read: rabbit serum, diet 0.4%, 7 days, read-out: TRIG (triglycerides), percent of control.
The mark [7] stands for this setting: rabbit serum, diet 0.4%, 7 days, read-out: chol tot. (total cholesterol), percent of control.
Where [8] appears, read: rat liver, diet 0.3%, read-out: Liver Parent = parent compound concentration.
Setting [9] is: rat serum, diet 0.3%, read-out: Serum Parent = parent compound concentration.

With `CC(=O)Oc1ccc(OC[Si](C)(C)c2ccccc2)cc1C(C)(C)C` [MDL 105,443, 2-t-Butyl-4-[(dimethylphenylsilyl)methyloxy]phenol acetic acid ester], the response vs control in vivo at 0.4 % in data set [1] (setting [4]) came to 115%; in data set [1] (setting [5]), 97%; in data set [1] (setting [6]) it was 127%; in data set [1] (setting [7]), 98%. In data set [2] (rat serum, diet 0.1%, 4 days), the response vs control in vivo at 0.1 % was 78%. Also, in data set [2] (rat serum, diet 0.3%, 4 days), the response vs control in vivo at 0.3 % was found to be 14%. Moreover, the “Liver Parent = parent compound concentration” value in data set [3] (rat liver, diet 0.1%) turned out to be 0 µg/g; in data set [3] (rat liver, diet 0.3%) it was 0 µg/g. Further, the “Serum Parent = parent compound concentration” value in data set [3] (rat serum, diet 0.1%) is 0 µg/mL; in data set [3] (rat serum, diet 0.3%) it was 0.0 µg/mL.
Turning to `CC(=O)Oc1c(C(C)(C)C)cc(OC[Si](C)(C)c2ccccc2)cc1C(C)(C)C` [MDL 103,377, 2,6-Di-t-butyl-4-[(dimethylphenylsilyl)methyloxy]phenol acetic acid ester], the response vs control in vivo at 0.3 % in data set [2] (rat serum, diet 0.3%, 4 days) stood at 71%. Moreover, the concentration at 96 h in data set [3] (setting [8]) was 22200 ng/g; in data set [3] (setting [9]) it was 7720 ng/mL.
With `CC(C)(C)c1cc(OC[Si](C)(C)c2ccc(C(F)(F)F)cc2)cc(C(C)(C)C)c1O` [MDL 105,975, 2,6-Di-t-butyl-4-[(dimethyl-4-trifluoromethylphenylsilyl)methyloxy]phenol], the response vs control in vivo at 0.4 % is 76% in data set [1] (read-out: HDL cholesterol, percent of control); 77% in data set [1] (read-out: LDL cholesterol, percent of control); 143% in data set [1] (read-out: TRIG (triglycerides), percent of control); 69% in data set [1] (read-out: chol tot. (total cholesterol), percent of control). The response vs control in vivo at 0.1 % in data set [2] (Rattus norvegicus) amounted to 67%. In data set [2] (Rattus norvegicus), the response vs control in vivo at 0.3 % was 24%. Besides, the concentration at 96 h in data set [3] (rat liver, diet 0.1%, read-out: Liver Parent = parent compound concentration) is 94500 ng/g; in data set [3] (setting [8]), 186000 ng/g; in data set [3] (rat serum, diet 0.1%, read-out: Serum Parent = parent compound concentration) it was 23800 ng/mL; in data set [3] (setting [9]), 35800 ng/mL.
For the compound `CC(C)(C)c1cc(OC[Si](C)(c2ccccc2)c2ccccc2)cc(C(C)(C)C)c1O` [MDL 104,599, 2,6-Di-t-butyl-4-[(diphenylmethylsilyl)methloxy]phenol], the response vs control in vivo at 0.4 % in data set [1] (setting [4]) came out at 105%; in data set [1] (setting [5]), 71%; in data set [1] (setting [6]), 64%; in data set [1] (setting [7]), 76%. For the same compound, the response vs control in vivo at 0.3 % in data set [2] (rat serum, diet 0.3%, 4 days) was determined as 34%. The figures for the concentration at 96 h in data set [3] (setting [8]) and in data set [3] (setting [9]) were 44900 ng/g and 28300 ng/mL, respectively.
Consider `COc1ccc([Si](C)(C)COc2ccc(O)c(C(C)(C)C)c2)cc1` [MDL 106,834, 2-t-Butyl-4-[(dimethyl-p-methoxylphenylsilyl)methyloxy]phenol], for which the response vs control in vivo at 0.4 % in data set [1] (setting [4]) came out at 61%; in data set [1] (setting [5]) it was 89%; in data set [1] (setting [6]), 98%; in data set [1] (setting [7]), 67%. Besides, the response vs control in vivo at 0.3 % in data set [2] (rat serum, diet 0.3%, 4 days) is 31%. The concentration at 96 h in data set [3] (setting [8]) amounted to 2700 ng/g; in data set [3] (setting [9]), 1800 ng/mL.
As to `CC(C)(C)c1cc(SC[Si](C)(C)c2ccccc2)cc(C(C)(C)C)c1OC(=O)CCC(=O)O` [MDL 103,141, 2,6-Di-t-butyl-4-[(dimethylphenylsilyl)methylthio]phenol sucinic acid ester], the response vs control in vivo at 0.3 % in data set [2] (Rattus norvegicus) was 113%. Besides, the “Liver Parent = parent compound concentration” value in data set [3] (rat liver, diet 0.3%) was found to be 0 µg/g. In data set [3] (rat serum, diet 0.3%), the “Serum Parent = parent compound concentration” value worked out at 0 µg/mL.
In the same order, the values of `Cc1cc(OC[Si](C)(C)c2ccccc2)c(C)c(C)c1O` [MDL 105,314, 2,3,6-Trimethyl-4-[(dimethylphenylsdilyl)methloxy]phenol] are 85%, 0.0 µg/g and 0.0 µg/mL.
On the same counts, the results for `CC(C)(C)c1cc(OC[Si](C)(C)c2ccccc2)cc(C(C)(C)C)c1OC(=O)CCC(=O)O` [MDL 103,076, 2,6-Di-t-butyl-4-[(dimethylphenylsilyl)methyloxy]phenol succinic acid ester] are 107%, 0 µg/g and 0 µg/mL.

The record behind these values is patent publication US5608095A, “Alkyl-4-silyl-phenols and esters thereof as antiatherosclerotic agents” (Hoechst Marion Roussel, Inc., priority 1996, dated 1997).
